This assay has as its target Cav3.2 (Homo sapiens (Human), UniProt O95180). The experiment in a line: In vitro patch clamp assay (SyncroPatch 384PE). The class given is cell-based. The note with it: HEK293 cells. As to the method: Patch clamp assays were performed at Charles River. HEK293 cells were cultured in Dulbecco's Modified Eagle Medium/Nutrient Mixture F-12 (D-MEM/F-12) supplemented with 10% fetal bovine serum, 100 U/mL penicillin G sodium, 100 μg/mL streptomycin sulfate and 500 μg/mL G418. Before testing, cells in culture dishes were washed twice with Hank's Balanced Salt Solution, treated with Accutase™ and re-suspended in the culture media (˜20×10^6 cells in 20 mL). Cells in suspension were allowed to recover for 10 minutes in tissue culture incubator set at 37° C. in a humidified 95% air: 5% CO2 atmosphere. Immediately before use in the SyncroPatch 384PE system (SP384PE), the cells were washed twice in extracellular buffer (HB-PS) to remove the culture medium and re-suspended in 20 mL of HB-PS. Extracellular buffer was loaded into the wells of Nanion 384-well Patch Clamp (NPC-384, 4×M) chip (60 μL per well). Then, cell suspension was pipetted into the wells (20 μL per well) of the chip. After establishment of the whole-cell configuration, membrane currents were recorded using patch clamp amplifier in the SP384PE system.
For orientation: Patch clamp records ionic current or voltage across a cell membrane.

Chain of Cav3.2 (O95180 whole entry): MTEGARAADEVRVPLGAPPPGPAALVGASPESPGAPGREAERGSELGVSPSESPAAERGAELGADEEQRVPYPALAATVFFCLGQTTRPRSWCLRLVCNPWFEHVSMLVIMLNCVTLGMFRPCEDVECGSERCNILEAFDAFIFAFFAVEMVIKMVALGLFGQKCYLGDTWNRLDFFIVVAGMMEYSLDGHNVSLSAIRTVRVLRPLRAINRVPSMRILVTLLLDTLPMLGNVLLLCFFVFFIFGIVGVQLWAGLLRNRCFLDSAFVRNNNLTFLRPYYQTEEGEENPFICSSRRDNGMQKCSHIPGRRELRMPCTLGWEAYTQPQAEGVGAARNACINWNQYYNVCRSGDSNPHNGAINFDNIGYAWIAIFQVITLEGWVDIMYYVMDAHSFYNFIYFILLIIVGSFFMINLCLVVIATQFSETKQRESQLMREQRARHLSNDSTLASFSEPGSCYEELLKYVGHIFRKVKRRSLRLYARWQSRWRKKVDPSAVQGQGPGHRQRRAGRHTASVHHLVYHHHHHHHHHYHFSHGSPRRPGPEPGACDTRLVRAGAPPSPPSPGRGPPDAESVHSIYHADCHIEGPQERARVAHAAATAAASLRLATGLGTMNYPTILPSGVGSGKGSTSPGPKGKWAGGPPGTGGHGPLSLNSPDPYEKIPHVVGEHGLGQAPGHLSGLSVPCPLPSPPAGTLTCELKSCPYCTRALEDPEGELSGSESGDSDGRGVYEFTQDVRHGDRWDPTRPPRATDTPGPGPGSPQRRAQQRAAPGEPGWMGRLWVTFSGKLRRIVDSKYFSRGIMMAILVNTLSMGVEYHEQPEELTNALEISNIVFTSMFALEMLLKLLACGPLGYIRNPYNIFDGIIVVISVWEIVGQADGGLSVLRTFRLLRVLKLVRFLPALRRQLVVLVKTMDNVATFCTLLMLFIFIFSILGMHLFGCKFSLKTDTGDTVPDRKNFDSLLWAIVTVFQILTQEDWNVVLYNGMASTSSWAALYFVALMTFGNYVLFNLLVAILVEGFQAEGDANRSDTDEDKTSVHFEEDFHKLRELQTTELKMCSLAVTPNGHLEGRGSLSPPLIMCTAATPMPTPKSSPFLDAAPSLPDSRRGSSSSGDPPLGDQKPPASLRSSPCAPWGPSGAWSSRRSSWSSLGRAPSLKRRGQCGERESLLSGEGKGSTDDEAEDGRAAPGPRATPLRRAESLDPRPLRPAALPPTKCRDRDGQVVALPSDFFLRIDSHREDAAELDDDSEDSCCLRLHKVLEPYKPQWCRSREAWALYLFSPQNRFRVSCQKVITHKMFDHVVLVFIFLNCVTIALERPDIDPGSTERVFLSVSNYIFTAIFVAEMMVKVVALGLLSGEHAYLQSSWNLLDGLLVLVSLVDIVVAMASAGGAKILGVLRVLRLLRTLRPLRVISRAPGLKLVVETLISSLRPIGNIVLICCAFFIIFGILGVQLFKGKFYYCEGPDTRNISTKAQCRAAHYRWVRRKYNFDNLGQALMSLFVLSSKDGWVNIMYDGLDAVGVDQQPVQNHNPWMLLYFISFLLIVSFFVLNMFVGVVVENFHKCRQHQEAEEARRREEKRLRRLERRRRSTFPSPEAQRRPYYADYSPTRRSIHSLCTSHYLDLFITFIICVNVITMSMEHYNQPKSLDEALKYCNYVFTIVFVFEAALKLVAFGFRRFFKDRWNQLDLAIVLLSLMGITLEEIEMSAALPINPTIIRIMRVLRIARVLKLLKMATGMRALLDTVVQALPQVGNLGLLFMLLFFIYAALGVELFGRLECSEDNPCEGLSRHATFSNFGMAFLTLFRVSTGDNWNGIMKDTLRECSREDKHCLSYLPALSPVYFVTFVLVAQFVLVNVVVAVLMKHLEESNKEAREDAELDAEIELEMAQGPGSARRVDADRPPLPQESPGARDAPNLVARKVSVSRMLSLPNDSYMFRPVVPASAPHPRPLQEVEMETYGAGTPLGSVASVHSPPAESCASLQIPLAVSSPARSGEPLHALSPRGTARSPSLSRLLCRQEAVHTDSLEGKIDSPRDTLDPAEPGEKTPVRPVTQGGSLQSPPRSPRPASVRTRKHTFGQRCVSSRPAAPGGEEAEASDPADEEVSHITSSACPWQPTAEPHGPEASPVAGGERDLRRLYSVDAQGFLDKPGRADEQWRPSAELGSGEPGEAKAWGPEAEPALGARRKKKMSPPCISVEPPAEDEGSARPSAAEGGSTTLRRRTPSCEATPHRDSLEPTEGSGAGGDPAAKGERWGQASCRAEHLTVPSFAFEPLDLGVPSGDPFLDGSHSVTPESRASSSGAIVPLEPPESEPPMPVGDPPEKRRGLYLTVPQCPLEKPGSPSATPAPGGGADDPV

As a reminder, the IC50 is the point on the concentration scale where inhibition reaches its midpoint. As for `C[C@@H](NC(=O)Cc1ccc(C2CC2(F)F)cc1)c1cc2cnn(CC(F)(F)F)c2cn1` (single isomer, unassigned) [Example 30], the 50% inhibitory concentration (IC50) amounted to 475 nM. As for `C[C@@H](NC(=O)Cc1ccc(C2CC2(F)F)cc1)c1cc2cnn(CC(F)(F)F)c2cn1` (single isomer, unassigned) [Example 31], the concentration for half-maximal inhibition (IC50) came to 505 nM.

`CC(C)c1ccc(CC(=O)N[C@H](C)c2cc3cnn(C)c3cn2)cc1` [Example 1, (R)-2-(4-isopropylphenyl)-N-(1-(1-methyl-1H-pyrazolo[3,4-c]pyridin-5-yl)ethyl)acetamide] showed an IC50 of 522 nM. The IC50 values of the last two molecules are within 1.5-fold of each other. Then `CC(C)c1ccc(CC(=O)N[C@H](C)c2cc3cn(C)nc3cn2)cc1` [Example 2, (R)-2-(4-isopropylphenyl)-N-(1-(2-methyl-2H-pyrazolo[3,4-c]pyridin-5-yl)ethyl)acetamide], with 6450 nM. `CC(C)c1ccc(CC(=O)N[C@H](C)c2cc3c(cn2)cnn3C)cc1` [Example 3, (R)-2-(4-isopropylphenyl)-N-(1-(1-methyl-1H-pyrazolo[4,3-c]pyridin-6-yl)ethyl)acetamide] had an IC50 of over 10000 nM. On to `CC(C)c1ccc(CC(=O)N[C@H](C)c2cc3nn(C)cc3cn2)cc1` [Example 4, (R)-2-(4-isopropylphenyl)-N-(1-(2-methyl-2H-pyrazolo[4,3-c]pyridin-6-yl)ethyl)acetamide], for which the IC50 is over 10000 nM. Then `Cc1noc2cc([C@@H](C)NC(=O)Cc3ccc(C(C)C)cc3)ncc12` [Example 5, (R)-2-(4-isopropylphenyl)-N-(1-(3-methylisoxazolo[4,5-c]pyridin-6-yl)ethyl)acetamide], with 1220 nM; and `Cc1noc2cnc([C@@H](C)NC(=O)Cc3ccc(C(C)C)cc3)cc12` [Example 6, (R)-2-(4-isopropylphenyl)-N-(1-(3-methylisoxazolo[5,4-c]pyridin-5-yl)ethyl)acetamide], with 7840 nM.

On to `CCCn1ncc2cc([C@@H](C)NC(=O)Cc3ccc(C(C)C)cc3)ncc21` [Example 7, (R)-2-(4-isopropylphenyl)-N-(1-(1-propyl-1H-pyrazolo[3,4-c]pyridin-5-yl)ethyl)acetamide], for which 110 nM corresponded to half-maximal inhibition (IC50). The same measure for `CCn1ncc2cc([C@@H](C)NC(=O)Cc3ccc(C(C)C)cc3)ncc21` [Example 8, (R)—N-(1-(1-ethyl-1H-pyrazolo[3,4-c]pyridin-5-yl)ethyl)-2-(4-isopropylphenyl)acetamide]: 126 nM; for `CC(C)c1ccc(CC(=O)N[C@H](C)c2cc3cnn(CC(F)(F)F)c3cn2)cc1` [Example 9, (R)-2-(4-isopropylphenyl)-N-(1-(1-(2,2,2-trifluoroethyl)-1H-pyrazolo[3,4-c]pyridin-5-yl)ethyl)acetamide]: 44 nM. The same measure for `C[C@@H](NC(=O)Cc1ccc(C2(C(F)(F)F)CC2)cc1)c1cnc2c(cnn2C)c1` [Example 10, (R)—N-(1-(1-methyl-1H-pyrazolo[3,4-b]pyridin-5-yl)ethyl)-2-(4-(1-(trifluoromethyl)cyclopropyl)phenyl)acetamide]: over 10000 nM. In the case of `CCCn1cc2cc([C@@H](C)NC(=O)Cc3ccc(C(C)C)cc3)ncc2n1` [Example 11, (R)-2-(4-isopropylphenyl)-N-(1-(2-propyl-2H-pyrazolo[3,4-c]pyridin-5-yl)ethyl)acetamide], 2420 nM corresponded to half-maximal inhibition (IC50). In other words, the single-digit micromolar range. The same measure for `C[C@@H](NC(=O)Cc1ccc(C2(C(F)(F)F)CC2)cc1)c1cc2cnn(C)c2cn1` [Example 12, (R)—N-(1-(1-methyl-1H-pyrazolo[3,4-c]pyridin-5-yl)ethyl)-2-(4-(1-(trifluoromethyl)cyclopropyl)phenyl)acetamide]: 647 nM; for `CC(C)c1ccc(CC(=O)N[C@H](C)c2cc3cnn(C)c3nn2)cc1` [Example 13, (R)-2-(4-isopropylphenyl)-N-(1-(1-methyl-1H-pyrazolo[3,4-c]pyridazin-5-yl)ethyl)acetamide]: 710 nM; for `CC(C)c1ccc(CC(=O)N[C@H](C)c2cc3cnn(CC(C)(F)F)c3cn2)cc1` [Example 14, (R)—N-(1-(1-(2,2-difluoropropyl)-1H-pyrazolo[3,4-c]pyridin-5-yl)ethyl)-2-(4-isopropylphenyl)acetamide]: 85 nM. Take `C[C@@H](NC(=O)Cc1ccc(C(C)(F)F)nc1)c1cc2cnn(CC(F)(F)F)c2cn1` [Example 16, (R)-2-(6-(1,1-difluoroethyl)pyridin-3-yl)-N-(1-(1-(2,2,2-trifluoroethyl)-1H-pyrazolo[3,4-c]pyridin-5-yl)ethyl)acetamide]: the IC50 stood at 1270 nM. Then `C[C@@H](NC(=O)Cc1ccc(C2(C(F)(F)F)CC2)s1)c1cc2cnn(CC(F)(F)F)c2cn1` [Example 17, (R)—N-(1-(1-(2,2,2-trifluoroethyl)-1H-pyrazolo[3,4-c]pyridin-5-yl)ethyl)-2-(5-(1-(trifluoromethyl)cyclopropyl)thiophen-2-yl)acetamide], with 292 nM. The same measure for `CC(C)c1ccc(CC(=O)N[C@H](C)c2cc3cnn(CC4(F)CC4)c3cn2)cc1` [Example 18, (R)—N-(1-(1-((1-fluorocyclopropyl)methyl)-1H-pyrazolo[3,4-c]pyridin-5-yl)ethyl)-2-(4-isopropylphenyl)acetamide]: 343 nM; for `C[C@@H](NC(=O)Cc1ccc(C(C)(F)F)cc1)c1cc2cnn(CC(F)(F)F)c2cn1` [Example 19, (R)-2-(4-(1,1-difluoroethyl)phenyl)-N-(1-(1-(2,2,2-trifluoroethyl)-1H-Pyrazolo[3,4-c]pyridin-5-yl)ethyl)acetamide]: 132 nM. In the case of `CC(C)c1ccc(CC(=O)N[C@H](C)c2cc3cnn(CC(F)(F)F)c3cn2)cn1` [Example 20, (R)-2-(6-isopropylpyridin-3-yl)-N-(1-(1-(2,2,2-trifluoroethyl)-1H-pyrazolo[3,4-c]pyridin-5-yl)ethyl)acetamide], the IC50 was 1050 nM. The same measure for `C[C@@H](NC(=O)Cc1ccc(C2(C(F)F)CC2)nc1)c1cc2cnn(CC(F)(F)F)c2cn1` [Example 21, (R)-2-(6-(1-(difluoromethyl)cyclopropyl)pyridin-3-yl)-N-(1-(1-(2,2,2-trifluoroethyl)-1H-pyrazolo[3,4-c]pyridin-5-yl)ethyl)acetamide]: 637 nM; for `C[C@@H](NC(=O)Cc1ccc(C2(C(F)F)CC2)cc1)c1cc2cnn(CC(F)(F)F)c2cn1` [Example 22, (R)-2-(4-(1-(difluoromethyl)cyclopropyl)phenyl)-N-(1-(1-(2,2,2-trifluoroethyl)-1H-pyrazolo[3,4-c]pyridin-5-yl)ethyl)acetamide]: 194 nM; for `C[C@@H](NC(=O)Cc1ccc(C2CC2)nc1)c1cc2cnn(-c3ccc(F)cc3)c2cn1` [Example 23, (R)-2-(6-cyclopropylnyridin-3-yl)-N-(1-(1-(4-fluorophenyl)-1H-pyrazolo[3,4-c]pyridin-5-yl)ethyl)acetamide]: 4020 nM. Then `C[C@@H](NC(=O)Cc1ccc(C2CC2)cc1)c1cc2nnn(CC(F)(F)F)c2cn1` [Example 24, (R)-2-(4-cyclopropylphenyl)-N-(1-(3-(2,2,2-trifluoroethyl)-3H-[1,2,3]triazolo[4,5-c]pyridin-6-yl)ethyl)acetamide], with 333 nM; and `C[C@@H](NC(=O)Cc1ccc(C2CC2)nc1)c1cc2cnn(CC(F)(F)F)c2cn1` [Example 25, (R)-2-(6-cyclopropylpyridin-3-yl)-N-(1-(1-(2,2,2-trifluoroethyl)-1H-pyrazolo[3,4-c]pyridin-5-yl)ethyl)acetamide], with 2590 nM. Then `C[C@@H](NC(=O)Cc1ccc(C2(C(F)(F)F)CC2)nc1)c1cc2cnn(CC(F)(F)F)c2cn1` [Example 26, (R)—N-(1-(1-(2,2,2-trifluoroethyl)-1H-pyrazolo[3,4-c]pyridin-5-yl)ethyl)-2-(6-(1-(trifluoromethyl)cyclopropyl)pyridin-3-yl)acetamide], with 7030 nM; and `C[C@@H](NC(=O)Cc1ccc(C2CC2)cc1)c1cc2cnn(-c3ccc(F)cc3)c2cn1` [Example 27, (R)-2-(4-cyclopropylphenyl)-N-(1-(1-(4-fluorophenyl)-1H-Pyrazolo[3,4-c]pyridin-5-yl)ethyl)acetamide], with 861 nM. On to `C[C@@H](NC(=O)Cc1ccc(C2CC2)cc1)c1cc2cnn(CC(F)(F)F)c2cn1` [Example 28, (R)-2-(4-cyclopropylphenyl)-N-(1-(1-(2,2,2-trifluoroethyl)-1H-pyrazolo[3,4-c]pyridin-5-yl)ethyl)acetamide], for which it took 89 nM to reach half-maximal inhibition (IC50). Against the preceding molecule, the IC50 is about 9.7-fold lower.

On to `C[C@@H](NC(=O)Cc1ccc(C2(F)CC2)cc1)c1cc2cnn(CC(F)(F)F)c2cn1` [Example 29, (R)-2-(4-(1-fluorocyclopropyl)phenyl)-N-(1-(1-(2,2,2-trifluoroethyl)-1H-pyrazolo[3,4-c]pyridin-5-yl)ethyl)acetamide], for which the IC50 was 533 nM. Compared with the last molecule, the IC50 is about 6-fold higher.

In the case of `Cc1nn(CC(F)(F)F)c2cnc([C@@H](C)NC(=O)Cc3ccc(C(C)C)cc3)cc12` [Example 32, (R)-2-(4-isopropylphenyl)-N-(1-(3-methyl-1-(2,2,2-trifluoroethyl)-1H-pyrazolo[3,4-c]pyridin-5-yl)ethyl)acetamide], the midpoint of inhibition, the IC50, lay at 9420 nM. This IC50 lies about 18-fold higher than the previous one. Then `Cc1nn(CC(F)(F)F)c2cnc([C@@H](C)NC(=O)Cc3ccc(C4CC4)cc3)cc12` [Example 33, (R)-2-(4-cyclopropylphenyl)-N-(1-(3-methyl-1-(2,2,2-trifluoroethyl)-1H-pyrazolo[3,4-c]pyridin-5-yl)ethyl)acetamide], with 8270 nM.

The values above are taken from US20240190865A1, “T-TYPE CALCIUM CHANNEL ANTAGONISTS AND USES THEREOF” (THE BOARD OF TRUSTEES OF THE LELAND STANFORD JUNIOR …, priority 2021, published 2024).
